The nature of the data set: Aerodynamic particle size distribution, Next Generation Pharmaceutical Impactor (NGI). The data set is classed as physicochemical. The conditions noted are these: sample 2 (GB 1.13 mg/ml; pH 3.0), soft mist inhaler, NGI 30 L/minute, RH 90%, HPLC per active. As to the method: The aerodynamic particle size distribution was determined using a Next Generation Pharmaceutical Impactor (NGI). The soft mist inhaler was held close to the NGI inlet until no aerosol was visible. The flow rate of the NGI was set to 30 L/minute and was operated under ambient temperature and a relative humidity (RH) of 90%.
The solution of sample 2 was discharged into the NGI. Fractions of the dose were deposited at different stages of the NGI, in accordance with the particle size of the fraction. Each fraction was washed from the stage and analyzed using HPLC.
The particle size distribution was expressed in terms of mass median aerodynamic diameter (MMAD) and Geometric Standard Deviation (GSD). […] The sample is sample 2 as described in Example 4 (GB 1.13 mg/ml; pH 3.0). The aerodynamic particle size distribution of sample 2 was investigated by means of the original research device of TB-OH and a new generation of cascade impactor.

Consider two molecules from patent publication US20210220367A1, “INHALABLE FORMULATION OF A SOLUTION CONTAINING GLYCOPYRROLATE AND OLODATEROL HYDROCHLORIDE” (priority 2020, published 2021).

As to `COc1ccc(CC(C)(C)NC[C@H](O)c2cc(O)cc3c2OCC(=O)N3)cc1.Cl` [Olodaterol hydrochloride, 2H-1,4-Benzoxazin-3H(4H)-one, 6-hydroxy-8-[(1R)-1-hydroxy-2-[[2-(4-methoxyphenyl)-1,1-dimethylethyl]-amino]ethyl], monohydrochloride], the GSD came out at 1.79 and the “MMAD (μm)” value came to 4.01 μm.
For “(3RS)-3-[(2SR)-(2-cyclopentyl-2-hydroxy-2-penylacetyl)oxy]-1,1-dimethlypyrrolidinium bromide [Glycopyrrolate]” the same measures were 1.77 and 4.05 μm.
